Measured values from ChEMBL document CHEMBL1133460, “Synthesis and biological evaluation of certain alpha,beta-unsaturated ketones and their corresponding fused pyridines as antiviral and cytotoxic agents” (J Med Chem, 2000).
≈ marks a conversion by molar mass, not a printed value. Where “and” joins values, the source holds several entries; their conditions need not be identical. Identical values can stand only once. Calls of active or inactive are those of the source. No cut-off for these calls is given here.

Assays:
[1] = system: Human alphaherpesvirus 1; assay: Concentration which caused 50% loss of the monolayer present around the viral plaques in uM; format: functional, organism-based
[2] = system: Tumor cell line; assay: In vitro for median growth inhibitory concentration against melanoma cell lines; format: functional; conditions: Homo sapiens
[3] = system: Tumor cell line; assay: In vitro for median growth inhibitory concentration against leukemia; format: functional; conditions: Homo sapiens
[4] = system: Human alphaherpesvirus 1; assay: In vitro antiviral activity against Herpes Simplex-1 virus (HSV-1) expressed as percent reduction in the number of viral plaques; format: functional; design: concentration or dose not given beside the values
[5] = system: Panel melanoma (Carcinoma cell lines); assay: In vitro growth inhibitory concentration against melanoma cancer cell lines; format: functional; conditions: Homo sapiens
[6] = system: Panel leukemia (Carcinoma cell lines); assay: In vitro growth inhibitory concentration against leukemia tumor cell lines; format: functional; conditions: Homo sapiens
[7] = system: Tumor cell line; assay: In vitro for median growth inhibitory concentration against CNS cancer cell lines; format: functional; conditions: Homo sapiens
[8] = system: Tumor cell line; assay: In vitro for median growth inhibitory concentration against non small lung cancer cell lines; format: functional; conditions: Homo sapiens
[9] = system: MT4; assay: In vitro inhibitory activity against uninfected T4 cells; format: functional, cell-based; conditions: Homo sapiens
[10] = system: Tumor cell line; assay: In vitro for median growth inhibitory concentration against prostate cancer cell lines; format: functional; conditions: Homo sapiens
[11] = system: Panel CNS (Carcinoma cell lines); assay: In vitro growth inhibitory concentration against CNS cancer cell lines; format: functional; conditions: Homo sapiens
[12] = system: Human alphaherpesvirus 1; assay: Minimum antiviral concentration proved to be lethal to viral population in ug/mL.; format: functional
[13] = system: Tumor cell line; assay: In vitro for median growth inhibitory concentration against ovarian cancer cell lines; format: functional; conditions: Homo sapiens
[14] = system: Tumor cell line; assay: In vitro for median growth inhibitory concentration against colon cancer cell lines; format: functional; conditions: Homo sapiens
[15] = system: Ovarian cancer cell line; assay: In vitro growth inhibitory concentration against ovarian cancer cell lines; format: functional; conditions: Homo sapiens
[16] = system: Breast cancer cell line; assay: In vitro growth inhibitory concentration against breast cancer cell lines; format: functional; conditions: Homo sapiens
[17] = system: T4; assay: (§1) In vitro effective concentration against HIV-1 cytopathic effect in T4 cells; Inactive; format: functional, cell-based; conditions: Homo sapiens
[18] = system: Tumor cell line; assay: In vitro for median growth inhibitory concentration against renal cancer cell lines; format: functional; conditions: Homo sapiens
[19] = system: Human alphaherpesvirus 1; assay: Minimum antiviral concentration proved to be lethal to viral population in uM; format: functional
[20] = system: Tumor cell line; assay: In vitro for median growth inhibitory concentration against breast cancer cell lines; format: functional; conditions: Homo sapiens
[21] = system: Human alphaherpesvirus 1; assay: Concentration which caused 50% loss of the monolayer present around the viral plaques in ug/mL.; format: functional, organism-based
[22] = In vitro growth inhibitory concentration against colon cancer tumor cell lines; format: functional; conditions: Homo sapiens
[23] = system: Panel renal (Carcinoma cell lines); assay: In vitro growth inhibitory concentration against renal cancer cell lines; format: functional; conditions: Homo sapiens
[24] = system: Tumor cell line; assay: In vitro for growth inhibitory concentration against non small lung cancer cell lines; format: functional; conditions: Homo sapiens
[25] = system: Ovarian cancer cell line; assay: In vitro median growth inhibitory concentration against ovarian cancer cell lines; format: functional; conditions: Homo sapiens
[26] = system: NSCLC; assay: In vitro growth inhibitory concentration against non-small-cell lung cancer; format: functional; conditions: Homo sapiens
[27] = system: Panel prostate (Carcinoma cell lines); assay: In vitro median growth inhibitory concentration against prostate cancer cell lines; format: functional; conditions: Homo sapiens
[28] = system: NSCLC; assay: In vitro median growth inhibitory concentration against non-small-cell lung cancer; format: functional; conditions: Homo sapiens
[29] = system: Panel CNS (Carcinoma cell lines); assay: In vitro median growth inhibitory concentration against CNS cancer cell lines; format: functional; conditions: Homo sapiens
[30] = system: Panel leukemia (Carcinoma cell lines); assay: In vitro median growth inhibitory conc. against leukemia was estimated.; format: functional; conditions: Homo sapiens
[31] = system: Breast cancer cell line; assay: (§2) In vitro median growth inhibitory concentration against breast cancer cell lines; format: functional; conditions: Homo sapiens
[32] = species on record: Homo sapiens; assay: Selectivity ratio between the full panel MG-MID and leukemia subpanel MG-MID was determined.; format: functional
[33] = system: Tumor cell line; assay: Median lethal concentration was estimated; format: ADME, cell-based; conditions: human
[34] = system: Panel prostate (Carcinoma cell lines); assay: In vitro growth inhibitory concentration against prostate cancer cell lines; format: functional; conditions: Homo sapiens
[35] = system: Human immunodeficiency virus 1; assay: as §1; format: functional, organism-based
[36] = system: Panel melanoma (Carcinoma cell lines); assay: In vitro median growth inhibitory concentration against melanoma cell lines; format: functional; conditions: Homo sapiens
[37] = In vitro median growth inhibitory concentration against colon cancer cell lines; format: functional; conditions: Homo sapiens
[38] = system: Panel renal (Carcinoma cell lines); assay: In vitro median growth inhibitory concentration against renal cancer cell lines; format: functional; conditions: Homo sapiens
[39] = Full panel mean-graph midpoint (MG-MID).
[40] = Full panel mean-graph midpoint (MG-MID)
[41] = system: Tumor cell line; assay: In vitro growth inhibitory concentration against non-small-cell lung cancer cell lines; format: functional; conditions: Homo sapiens
[42] = system: Human alphaherpesvirus 1; assay: 50% loss of the monolayer present around the viral plaques in uM; format: functional, organism-based
[43] = system: Human alphaherpesvirus 1; assay: concentration caused 50% loss of the monolayer present around the viral plaques in ug/mL.; format: functional, organism-based
[44] = system: Tumor cell line; assay: as §2; format: functional; conditions: Homo sapiens
[45] = In vitro effective concentration against HIV-1 cytopathic effect in T4 cells; format: functional, cell-based; conditions: Homo sapiens
[46] = Therapeutic index (IC50/EC50) was determined; conditions: read-out: TI50

SMILES | Reduction [4] [%] | TGI [5] [µM] | TGI [6] [µM] | IC50 [9] [µM] | TGI [11] [µM] | TGI [15] [µM] | TGI [16] [µM] | TGI [22] [µM] | TGI [23] [µM] | GI50 [25] [µM] | GI50 [27] [µM] | GI50 [28] [µM] | GI50 [29] [µM] | GI50 [30] [µM] | Ratio [32] | EC50 [35] | GI50 [36] [µM] | GI50 [37] [µM] | GI50 [38] [µM] | MG-MID [40] | further results
CN1C/C(=C\c2cccs2)C(=O)/C(=C/c2cccs2)C1 | 33 | 84.1 | 51.6 | 15.2 | 82.7 | 81.4 | 75.4 | 72.2 | 70.4 |  |  |  |  |  |  |  |  |  |  |  | IC50 [1]: 0.66 µM; GI50 [2]: 34.6 µM; GI50 [3]: 10.6 µM; GI50 [7]: 36.6 µM; GI50 [8]: 36.5 µM; GI50 [10]: 23.9 µM; MAC [12]: 0.1 µg/mL; GI50 [13]: 23.5 µM; GI50 [14]: 23.7 µM; Inhibition [17]: inactive; GI50 [18]: 24.2 µM; MAC [19]: 3.3 µM; GI50 [20]: 28.7 µM; IC50 [21]: 0.2 mg/L (≈ 0.663 µM); TGI [24]: 90.1 µM
CN1C/C(=C\c2cccs2)C2=NN(c3ccccc3)C(c3cccs3)C2C1 (stereo not drawn) |  | > 100 | 52.2 | 9.1 | > 100 | > 100 | > 100 | 87.1 | > 100 | 24.2 | 19.3 | 20.8 | 35.7 | 2.2 | 3.9 | Not Active | 42.5 | 3.8 | 65.3 | 72.9 µM | TGI [26]: > 100 µM; GI50 [31]: 23.6 µM; LC50 [33]: 95.8 µM; TGI [34]: > 100 µM; MG-MID [39]: 8.5 µM
Cc1ccc(/C=C2\CN(C)CC3=C2N=C(S)NC3c2ccc(C)cc2)cc1 (stereo not drawn) | 45 | > 100 | 62.3 | 27.6 | 94.1 | 94 | 88.8 | 83.6 | 96.9 | 51.2 | 38.3 | 59.6 | 53.7 | 19.2 | 1.8 | Not Active | 58.8 | 37.1 | 60.8 | 34.5 µM and 86.5 µM | TGI [41]: 89.9 µM; IC50 [42]: 0.19 µM; MAC [12]: 0.1 µg/mL; GI50 [31]: 39.4 µM; TGI [34]: > 100 µM; MAC [19]: 0.27 µM; IC50 [43]: 0.07 mg/L (≈ 0.186 µM)
COc1ccc(/C=C2\CN(C)CC3C2=NN(c2ccccc2)C3c2ccc(OC)cc2)cc1 (stereo not drawn) |  |  |  | > 200 |  |  |  |  |  | 80.7 | > 100 | 82.1 | 63.1 | > 100 | 0.7 | Not Active | 77.7 | > 100 | 54.7 | 72.9 µM | GI50 [44]: 91.8 µM
CN1C/C(=C\c2ccncc2)C(=O)/C(=C/c2ccncc2)C1 |  |  |  | > 200 |  |  |  |  |  |  |  |  |  |  |  |  |  |  |  |  | EC50 [45]: 64.7 µM; selectivity ratio [46]: > 3.09
CN1CC2=C(N=C(S)NC2c2cccs2)/C(=C/c2cccs2)C1 (stereo not drawn) | 27 | > 100 | 69.8 | 34 | > 100 | > 100 | 98.1 | > 100 | > 100 | 65.5 | > 100 | 67.2 | 76.1 | 22.4 | 2.4 | Not Active | 60.5 | 70.5 | 75 | 53.5 µM and 95.8 µM | TGI [26]: > 100 µM; IC50 [42]: 0.58 µM; MAC [12]: 0.1 µg/mL; GI50 [31]: 45.1 µM; TGI [34]: > 100 µM; MAC [19]: 0.29 µM; IC50 [43]: 0.15 mg/L (≈ 0.417 µM)
